# Data: US7795456B2, “Insecticidal N-substituted sulfoximines” (Dow AgroSciences LLC, priority 2004, dated 2010)
# Key:
# [1] = tested on: yellow fever mosquito (Aedes aegypti) larvae; test: whole plant or invertebrate; format: in vivo; details: 72 h, read-out: YFM 26: % control at 26 ppm against yellow fever mosquito in submerge tests
# [2] = tested on: Colorado potato beetle (Leptinotarsa decemlineata); test: Insecticidal test for Colorado potato beetle, foliar spray on tomato; format: in vivo
# Method: Insecticidal Test for Colorado Potato Beetle (Leptinotarsa decemlineata).
# Tomato seedlings at the growth stage of three or four expanding leaves were used. […] Treated plants were held in the laboratory for approximately 3 h to allow drying before the upper portion (with two or three leaves) of a plant was cut and placed in a 10×2.5-cm petri dish containing approximately 10 mL of solidified 1% agar at the bottom. Five 2nd or 3rd instar larvae were placed on the treated plant tissue, and the petri dishes were covered and held in an incubator at 25° C. At 5 days following treatment, insecticidal activity was evaluated by counting the number of live larvae in each dish.
# [3] = tested on: corn earworm (Helicoverpa zea); details: 50 μg/cm2, second-instar larvae, 5 days
# [4] = tested on: beet armyworm (Spodoptera exigua); details: 50 μg/cm2, second-instar larvae, 5 days
# [5] = tested on: fruit fly (Drosophila melanogaster)
# [6] = tested on: beet armyworm (Spodoptera exigua); test: Insecticidal test for beet armyworm in injection assays; details: 1 h, read-out: BAW SYM: % showing intoxicated symptoms at 10 μg/larva against beet armyworm in injection tests
# [7] = tested on: cotton aphid (Aphis gossypii); test: Insecticidal test for cotton aphid, foliar spray on squash
# [8] = tested on: sweet potato whitefly (Bemisia tabaci); test: Insecticidal test for sweet potato whitefly, foliar spray on cotton
# [9] = tested on: green peach aphid (Myzus persicae); test: Insecticidal test for green peach aphid, foliar spray on cabbage seedlings; details: rundown assay, 3 days
smiles,measurement,setting,value
N#CN=[S@@]1(=O)CCCC1Cc1ccc(Cl)nc1 (stereo partly drawn) [Compound 20],pest or weed control at 26 ppm,[1],90 to 100%
same,"% Control at ppm, against Colorado potato beetle: 0.78","[2]; 0.78 ppm, rundown assay",F (Less than 50)
same,"% Control at ppm, against Colorado potato beetle: 3.13","[2]; 3.13 ppm, rundown assay",F (Less than 50)
same,"% Control at ppm, against Colorado potato beetle: 12.5","[2]; 12.5 ppm, rundown assay",A (90-100)
same,CPB 50: % control at 50 ppm against Colorado potato beetle in foliar spray tests,"[2]; 50 ppm, foliar spray, 5 days, Corrected % Control",A (90-100)
same,"% Control at ppm, against Colorado potato beetle: 50","[2]; 50 ppm, rundown assay",A (90-100)
same,CEW 50: % mortality at 50 μg/cm2 against corn earworm in dietary tests,[3],G (Inactive)
same,BAW 50: % mortality at 50 μg/cm2 against beet armyworm in dietary tests,[4],G (Inactive)
same,FF SYM: % showing intoxicated symptoms at 25 μg/cm2 against fruit fly in dietary tests,"[5]; 25 μg/cm2, 4 h",F (Less than 50)
same,FF 25: % mortality at 25 μg/cm2 against fruit fly in dietary tests,"[5]; 25 μg/cm2, 48 h",F (Less than 50)
same,pest or weed control at 0.01 mg,[6],80 to 89%
same,"% Control at ppm, against cotton aphid: 0.049","[7]; 0.049 ppm, rundown assay",B (80-89)
same,"% Control at ppm, against cotton aphid: 0.195","[7]; 0.195 ppm, rundown assay",A (90-100)
same,"% Control at ppm, against cotton aphid: 0.78","[7]; 0.78 ppm, rundown assay",A (90-100)
same,"% Control at ppm, against cotton aphid: 3.12","[7]; 3.12 ppm, rundown assay",A (90-100)
same,"% Control at ppm, against cotton aphid: 12.5","[7]; 12.5 ppm, rundown assay",A (90-100)
same,"% Control at ppm, against cotton aphid: 50","[7]; 50 ppm, rundown assay",A (90-100)
same,pest or weed control at 50 ppm,"[7]; Aphis gossypii, foliar, 72 h, read-out: CA 50: % control at 50 ppm against cotton aphid in foliar spray tests",90 to 100%
same,pest or weed control at 200 ppm,"[7]; Aphis gossypii, foliar, 72 h, read-out: CA 200: % control at 200 ppm against cotton aphid in foliar spray tests",90 to 100%
same,"% Control at ppm, against sweet potato whitefly: 0.4-0.78","[8]; 0.4-0.78 ppm, rundown assay",F (Less than 50)
same,"% Control at ppm, against sweet potato whitefly: 2-3.13","[8]; 2-3.13 ppm, rundown assay",F (Less than 50)
same,"% Control at ppm, against sweet potato whitefly: 10-12.5","[8]; 10-12.5 ppm, rundown assay",A (90-100)
same,"% Control at ppm, against sweet potato whitefly: 50","[8]; 50 ppm, rundown assay",A (90-100)
same,pest or weed control at 200 ppm,"[8]; Bemisia tabaci, in Gossypium hirsutum, foliar, read-out: SPW 200: % control at 200 ppm against sweet potato whitefly in foliar spray tests",90 to 100%
same,"% Control at ppm, against green peach aphid: 0.049",[9]; 0.049 ppm,F (Less than 50)
same,"% Control at ppm, against green peach aphid: 0.195",[9]; 0.195 ppm,F (Less than 50)
same,"% Control at ppm, against green peach aphid: 0.78",[9]; 0.78 ppm,F (Less than 50)
same,"% Control at ppm, against green peach aphid: 3.12",[9]; 3.12 ppm,F (Less than 50)
same,"% Control at ppm, against green peach aphid: 12.5",[9]; 12.5 ppm,A (90-100)
same,"% Control at ppm, against green peach aphid: 50",[9]; 50 ppm,A (90-100)
